Results as given in patent publication US20250236655A1, “PROCESS FOR THE PREPARATION OF LIRAGLUTIDE” (SHILPA PHARMA LIFESCIENCES LIMITED, priority 2024, published 2025).

Experiment: storage stability of liraglutide obtained by the present process
Assay type: physicochemical
Conditions: liraglutide of purity greater or equal to 99.5% obtained as per the present process

Liraglutide
stable to handle and store without any significant or measurable change in its morphology and physicochemical characteristics: more than 6 months
